Measurements reported in PMC11938010, “Positive Charge in an Antimalarial Compound Unlocks Broad-Spectrum Antibacterial Activity” (JACS Au, 2025).
≈ marks a conversion by molar mass, not a printed value. Where two headings read alike, the source gives them in different places.

Tests used:
[1] = test system: Streptococcus pneumoniae (DSM20566); assay: In vitro antibacterial activity (MIC), S. pneumoniae; assay type: cell-based; conditions: Streptococcus pneumoniae, DSM20566, read-out: Sp MIC95
[2] = test system: Staphylococcus aureus ssp. Aureus; assay: In vitro antibacterial activity (MIC), S. aureus; assay type: cell-based; conditions: Staphylococcus aureus, read-out: Sa MIC95
Escherichia coli ∆tolC = assay: microbe, parasite or virus in culture; assay type: cell-based; conditions: Escherichia coli; for inhibition at 50 µM: read-out: Ec∆tolC inh. at 50 µM (%)
[3] = test system: Plasmodium falciparum NF54; assay: P. falciparum in vitro drug sensitivity assay on asexual blood stage parasites ([3H]-hypoxanthine incorporation); assay type: cell-based; conditions: read-out: PfNF54 IC50
Solubility in 7H9 medium = assay type: physicochemical; conditions: M. tuberculosis growth medium (7H9)
[4] = test system: Mycobacterium tuberculosis (Mtb) strain H37Rv; assay: microbe, parasite or virus in culture; assay type: cell-based; conditions: 168 h, 7 days, footnote b: not active at maximum solubility, read-out: MtbH37Rv MIC90
in vitro = conditions: human, HepG2 CC50, 48 h, MTT
Acinetobacter baumannii = assay: In vitro antibacterial activity (growth inhibition, OD600), A. baumannii; assay type: cell-based; conditions: for MIC: read-out: Ab MIC95
E. coli K12 = assay: In vitro antibacterial activity (growth inhibition, OD600), E. coli wild-type; assay type: cell-based; conditions: Escherichia coli, Table 1 and main text
[5] = test system: Pseudomonas aeruginosa PA14; assay: In vitro antibacterial activity (growth inhibition, OD600), P. aeruginosa; assay type: cell-based; conditions: PA14, 50 μM compound, Table 1 and main text, read-out: PA14 inh. at 50 μM
[6] = Table S2, with standard deviation
[7] = Plasmodium falciparum, NF54, Table 1 and main text
[8] = 50 μM compound, Table 1 and main text, read-out: Ab inh. at 50 μM
[9] = 50 µM, Table S1, with standard deviation, read-out: Ab inh. at 50 µM (%)
[10] = K12, 50 μM compound, read-out: EcK12 inh. at 50 μM

SMILES | MIC ([1]; Table 1 and main text) | MIC [1, 6] | MIC ([2]; Table 1 and main text) | MIC [2, 6] | MIC (Escherichia coli ∆tolC; read-out: EcΔtolC MIC95) | IC50 [3, 7] | 7h9 media Sol. (Solubility in 7H9 medium) | MIC90 [4] | CC50 (in vitro) | inhibition at 50 µM (Escherichia coli ∆tolC) | IC50 ([3]; Table 1 and main text) | inhibition at 50 µM (Acinetobacter baumannii; [8]) | inhibition at 50 µM (Acinetobacter baumannii; [9]) | MIC (Escherichia coli ∆tolC; read-out: Ec∆tolC MIC95 (µM)) | inhibition at 50 µM (E. coli K12; K12, read-out: EcK12 inh. at 50 μM, 50 μM compound) | inhibition at 50 µM [5] | inhibition at 50 µM (E. coli K12; [10]) | MIC (Acinetobacter baumannii; Table S1, printed inside the inhibition column, with standard deviation, unit from Table 1 footnote) | MIC (Acinetobacter baumannii; printed inside the Ab inhibition column, Table 1 and main text)
O=C(Nc1cccc(F)c1)c1cc(-c2cc(Cl)ccc2O)[nH]n1 [Compound 1b] | > 50 µM | > 50 µM | > 50 µM | > 50 µM | > 50 µM | 700 nM | < 8 µM | – | – | – | – | – | – | – | – | – | – | – | –
O=C(Nc1cccc([N+](=O)[O-])c1)c1cc(-c2cc(Cl)ccc2O)[nH]n1 [Compound 1c] | > 50 µM | > 50 µM | > 50 µM | > 50 µM | > 50 µM | 510 nM | 32 µM | > 32 µM | – | – | – | – | – | – | – | – | – | – | –
O=C(Nc1cccc(CN2CCOCC2)c1)c1cc(-c2cc(Cl)ccc2O)[nH]n1 [Compound 2] | > 50 µM | > 50 µM | > 50 µM | > 50 µM | > 50 µM | 1100 nM | 16 µM | > 16 µM | ~50000 nM | 24 ± 12% | – | – | – | – | – | – | – | – | –
NCc1ccc(NC(=O)c2cc(-c3cc(Cl)ccc3O)[nH]n2)cc1 [Compound 8A] | > 50 µM | > 50 µM | > 50 µM | > 50 µM | > 50 µM | > 2000 nM | 16 µM | > 16 µM | 30000 nM | 44 ± 16% | 1800 nM | – | – | – | – | – | – | – | –
CC(C)(C)OC(=O)NCc1ccc(NC(=O)c2cc(-c3cc(Cl)ccc3O)[nH]n2)cc1 [Compound 8B] | > 50 µM | > 50 µM | > 50 µM | > 50 µM | > 50 µM | 1700 nM | < 8 µM | – | > 50000 nM | < 10% | – | – | – | – | – | – | – | – | –
O=C(Nc1ccc(CNC2=NCCN2)c(C(F)(F)F)c1)c1cc(-c2cc(Cl)ccc2O)[nH]n1 [Compound 10C, 5-(5-Chloro-2-hydroxyphenyl)-N-(4-(((4,5-dihydro-1H-imidazol-2-yl)amino)methyl)-3-(trifluoromethyl)phenyl)-1H-pyrazole-3-carboxamide] | 14 µM (≈ 6.7 µg/mL) | 14 ± 2 µM (≈ 6.7 µg/mL) | 8 µM (≈ 3.83 µg/mL) | 8 ± 2 µM (≈ 3.83 µg/mL) | 5.5 µM (≈ 2.63 µg/mL) | 404 nM | – | 16 µM (≈ 7.66 µg/mL) | > 50000 nM | – | – | 47% | 49.6 ± 0.9% | 5.5 ± 0.8 µM (≈ 2.63 µg/mL) | 77% | 29% | – | – | –
CC(C)(C)OC(=O)N1CCN=C1NCc1ccc(NC(=O)c2cc(-c3cc(Cl)ccc3O)[nH]n2)cc1C(F)(F)F [Compound 10D, tert-Butyl 2-((4-(5-(5-chloro-2-hydroxyphenyl)-1H-pyrazole-3-carboxamido)-2-(trifluoromethyl)benzyl)amino)-4,5-dihydro-1H-imidazole-1-carboxylate] | > 50 µM | > 50 µM | 11.6 µM (≈ 6.72 µg/mL) | 11.6 ± 0.2 µM (≈ 6.72 µg/mL) | 18 µM (≈ 10.4 µg/mL) | 140 nM | – | 16 µM (≈ 9.26 µg/mL) | 11000 nM | – | – | < 10% | – | 18 ± 6 µM (≈ 10.4 µg/mL) | – | < 10% | 17% | – | –
O=C(Nc1cc(N2CCNCC2)cc(C(F)(F)F)c1)c1cc(-c2cc(Cl)ccc2O)[nH]n1 [Compound 11A] | 5 µM (≈ 2.33 µg/mL) | 5 ± 1 µM (≈ 2.33 µg/mL) | 6 µM (≈ 2.8 µg/mL) | 6 ± 2 µM (≈ 2.8 µg/mL) | 7 µM (≈ 3.26 µg/mL) | ≤ 60 nM | – | 32 µM (≈ 14.9 µg/mL) | 9000 nM | – | 50 nM | – | – | 7 ± 2 µM (≈ 3.26 µg/mL) | – | < 10% | 72% | 22 ± 3 µM (≈ 10.2 µg/mL) | 22 µM (≈ 10.2 µg/mL)
CC(C)(C)OC(=O)N1CCN(c2cc(NC(=O)c3cc(-c4cc(Cl)ccc4O)[nH]n3)cc(C(F)(F)F)c2)CC1 [Compound 11B] | > 50 µM | > 50 µM | > 50 µM | > 50 µM | > 50 µM | 130 nM | < 8 µM | – | 4000 nM | 18 ± 4% | – | – | < 10% | – | – | – | – | – | –
O=C(Nc1cc(N2CCN(C3=NCCN3)CC2)cc(C(F)(F)F)c1)c1cc(-c2cc(Cl)ccc2O)[nH]n1 [Compound 11C, 5-(5-Chloro-2-hydroxyphenyl)-N-(3-(4-(4,5-dihydro-1H-imidazol-2-yl)piperazin-1-yl)-5-(trifluoromethyl)phenyl)-1H-pyrazole-3-carboxamide] | 7 µM (≈ 3.74 µg/mL) | 7 ± 2 µM (≈ 3.74 µg/mL) | 8 µM (≈ 4.27 µg/mL) | 8 ± 2 µM (≈ 4.27 µg/mL) | 7 µM (≈ 3.74 µg/mL) | 590 nM | – | 8 µM (≈ 4.27 µg/mL) | > 50000 nM | – | – | 53% | – | 7 ± 2 µM (≈ 3.74 µg/mL) | – | < 10% | 63% | – | –
O=C(Nc1ccc(N2CCNCC2)c(C(F)(F)F)c1)c1cc(-c2cc(Cl)ccc2O)[nH]n1 [Compound 12A, 5-(5-Chloro-2-hydroxyphenyl)-N-(4-(piperazin-1-yl)-3-(trifluoromethyl)phenyl)-1H-pyrazole-3-carboxamide] | 8 µM (≈ 3.73 µg/mL) | 8 ± 2 µM (≈ 3.73 µg/mL) | 14 µM (≈ 6.52 µg/mL) | 14 ± 2 µM (≈ 6.52 µg/mL) | 18.9 µM (≈ 8.8 µg/mL) | ≤ 60 nM | – | 16 µM (≈ 7.45 µg/mL) | 6000 nM | – | 60 nM | 29% | – | 18.9 ± 0.5 µM (≈ 8.8 µg/mL) | – | < 10% | 12% | – | –
CC(C)(C)OC(=O)N1CCN(c2ccc(NC(=O)c3cc(-c4cc(Cl)ccc4O)[nH]n3)cc2C(F)(F)F)CC1 [Compound 12B, tert-Butyl 4-(4-(5-(5-chloro-2-hydroxyphenyl)-1H-pyrazole-3-carboxamido)-2-(trifluoromethyl)phenyl)piperazine-1-carboxylate] | > 50 µM | > 50 µM | > 50 µM | > 50 µM | > 50 µM | 560 nM | < 8 µM | – | > 50000 nM | < 10% | – | – | < 10% | – | – | – | – | – | –
